In data set [1] the test system is C57BL/6J mice. As to the kind of experiment: Fecal calprotectin ELISA. Conditions: feces, day 6 vs day 0; once daily gavage. In kind it is in vivo. How it is done:
(§1) Eight- to 10-week-old specific-pathogen-free C57BL/6J mice were purchased and allowed to acclimate for 2 weeks. Mice were fed standardized laboratory rodent diet and sterile water ad libitum. […] Mice were then rehoused on the basis of treatment group assignment, with 5 animals/group-cage. To induce NSAID enteropathy, mice in group 1 were gavaged once daily with indomethacin (5 mg/kg; for 7 days; Sigma Aldrich, St. Louis, Mo.) dissolved in dimethylysulfoxide (DMSO) (Sigma Aldrich, St. Louis, Mo.) and further diluted in phosphate buffered saline (PBS). […] Sigma Aldrich, St. Louis, Mo.) dissolved in sterile water warmed to 55° C. […] All mice were gavaged with equal volumes (200 μL) and equal concentrations of DMSO (0.001%). Feces were collected daily by placing individual animals in sterile plastic cups that were RNase- and DNase-free until they passed feces. The mice were immediately returned to their home cages and the feces immediately flash frozen at -80° C. All animals were euthanized via CO2 asphyxiation on day 8 (i.e., after 7 days of treatment). […] Life Technologies, Carlsbad, Calif.), homogenized, and prepared as a single cell suspension for flow cytometric analysis as previously described (Wang […]. Measuring bacterial load and immune responses in mice infected with Listeria monocytogenes. Journal of Visualized Experiments: JoVE 2011). […]

Data set [2] deals with C57BL/6J mice. As to the kind of experiment: Histology and small intestinal morphometric measurements. In kind it is in vivo.
Experimental: Eight- to 10-week-old specific-pathogen-free C57BL/6J mice were purchased and allowed to acclimate for 2 weeks. Mice were fed standardized laboratory rodent diet and sterile water ad libitum. […] Mice were then rehoused on the basis of treatment group assignment, with 5 animals/group-cage. To induce NSAID enteropathy, mice in group 1 were gavaged once daily with indomethacin (5 mg/kg; for 7 days; Sigma Aldrich, St. Louis, Mo.) dissolved in dimethylysulfoxide (DMSO) (Sigma Aldrich, St. Louis, Mo.) and further diluted in phosphate buffered saline (PBS). […] All mice were gavaged with equal volumes (200 μL) and equal concentrations of DMSO (0.001%).
The slides were scored as previously described for intestinal inflammation (Jia Q, Lupton J R, Smith R, Weeks B R, Callaway E, Davidson L A, Kim W, Fan Y Y, Yang P, Newman R A, et al. Reduced colitis-associated colon cancer in Fat-1 (n-3 fatty acid desaturase) transgenic mice. Cancer Research 2008; 68:3985-91). Briefly, mucosal injury was determined by the following parameters scored from 0 (no evidence) to 3 (marked): mucosal ulceration, mucosal erosion, and presence of squamified epithelium. Inflammatory changes were scored similarly based on the following parameters: lymphocytic infiltration, plasma cell infiltration, and neutrophilic infiltration. Finally, an overall evidence of injury score was used to document total injury graded from 0 (none) to 4 (marked). Morphological parameters were obtained from digitally scanned slides using SPOT vr 5.0 software. Three sets of measurements from 3 separate sections were recorded for each animal by an observer blinded to treatment group. Measurements consisted of villus height, crypt depth, and submucosal mural thickness.
In data set [3] the test system is CD11b- and GR-1-positive cells (i.e., neutrophils). Briefly: Flow cytometry of spleen and mesenteric lymph nodes. In kind it is in vivo, mice. Conditions: after 7 days of treatment. How it is done:
as §1

For data set [4], the system named is fecal tryptophan metabolites. As to the kind of experiment: Fecal tryptophan metabolites by LC-MS. Conditions: for Magnitude of change in fecal concentration between Days 0 and 7: group effect ↑. In kind it is in vivo, mice. The text has this:
Eight- to 10-week-old specific-pathogen-free C57BL/6J mice were purchased and allowed to acclimate for 2 weeks. Mice were fed standardized laboratory rodent diet and sterile water ad libitum. Mice were randomly divided into the following 4 groups (n=5 mice/group): 1) NSAID (indomethacin); 2) indole; 3) NSAID+indole; and, 4) untreated controls. Mice were then rehoused on the basis of treatment group assignment, with 5 animals/group-cage. To induce NSAID enteropathy, mice in group 1 were gavaged once daily with indomethacin (5 mg/kg; for 7 days; Sigma Aldrich, St. Louis, Mo.) dissolved in dimethylysulfoxide (DMSO) (Sigma Aldrich, St. Louis, Mo.) and further diluted in phosphate buffered saline (PBS). Mice in group 2 received indole by gavage (20 mg/kg; once daily for 7 days; Sigma Aldrich, St. Louis, Mo.) dissolved in sterile water warmed to 55° C. Mice in group 3 received indole co-administered with indomethacin by gavage at the dosages described above. All mice were gavaged with equal volumes (200 μL) and equal concentrations of DMSO (0.001%).
Feces were collected daily by placing individual animals in sterile plastic cups that were RNase- and DNase-free until they passed feces. The mice were immediately returned to their home cages and the feces immediately flash frozen at −80° C. All animals were euthanized via CO2 asphyxiation on day 8 (i.e., after 7 days of treatment). The small intestine was harvested, opened longitudinally, rinsed with ice-cold PBS, and the distal ⅓ of the intestinal mucosa was scraped for tissue gene expression analysis. The remaining small intestine was fixed in 4% paraformaldehyde, Swiss-rolled, paraffin-embedded, and stained with hematoxylin and eosin. The spleen and mesenteric lymph nodes (MLN) were harvested, and immediately placed in ice cold RPMI-1640-c+10% fetal calf serum (FCS: Life Technologies, Carlsbad, Calif.), homogenized, and prepared as a single cell suspension for flow cytometric analysis as previously described (Wang N, Strugnell R, Wijburg O, Brodnicki T. Measuring bacterial load and immune responses in mice infected with Listeria monocytogenes. Journal of Visualized Experiments: JoVE 2011).
Metabolites from the fecal contents were extracted using a solvent-based method as previously described (Sridharan G V, Choi K, Klemashevich C, Wu C, Prabakaran D, Pan L B, Steinmeyer S, Mueller C, Yousofshahi M, Alaniz R C, et al. Prediction and quantification of bioactive microbiota metabolites in the mouse gut. Nature Communications 2014; 5:5492). Briefly, fecal pellets were homogenized using a homogenizer (Omni International) with equal volume of cold methanol and half volume of chloroform. The samples were then centrifuged at 10,000 g at 4° C. (Thermo Fisher Scientific) for 10 min. Supernatant was passed through a 70-μm sterile nylon cell strainer (Falcon) and 0.6 ml of ice cold water was added. The samples were vortex and centrifuged again at 10,000 g for 5 minutes. The upper phase and lower phase were collected and 400 μl of upper phase was dried to a pellet using a vacufuge (Eppendorf, Hauppauge, N.Y.), and then reconstituted in 50 μl of methanol/water (1:1, v/v). The samples were stored at −80° C. until analysis. Tryptophan metabolites in the samples were detected and quantified on a triple quadrupole linear ion trap mass spectrometer (3200 QTRAP, AB SCIEX, Foster City, Calif.) coupled to a binary pump HPLC (Prominence LC-20, Shimazu, Concord, Ontario, Canada).

SMILES strings stand for the structures.

Take `COc1ccc2c(c1)c(CC(=O)O)c(C)n2C(=O)c1ccc(Cl)cc1` [NSAID, indomethacin]: the fecal calprotectin levels entry with C57BL/6J mice [1] is “significantly different from day 0 calprotectin”. Also, the microscopic pathology scores entry with C57BL/6J mice [2] (Swiss-rolled H & E stained small intestinal sections, n=5/group) was “significant difference from control”. Further, in the data set on C57BL/6J mice [2] (data not shown), the “effect on the large intestine” value is “negligible effect”. Besides, the “ratio of villus height to crypt depth” value with C57BL/6J mice [2] (small intestinal mucosa) was “significantly decreased”. The “percentage of CD11b- and GR-1-positive cells (neutrophils) in the mesenteric lymph nodes (MLN)” value in data set [3] is on record as “significant increase”. Also, the “percentage of CD11b- and GR-1-positive cells (neutrophils) in the spleen” value in data set [3] is recorded as “significant increase”. Moreover, the “Magnitude of change in fecal concentration between Days 0 and 7” value was determined as 27.2 in data set [4] (5-Hydroxyindole); 13.9 in data set [4] (5-Hydroxytryptamine); 6.7 in data set [4] (Indole); 1.6 in data set [4] (Serotonin); 6.7 in data set [4] (Tyramine). For the same molecule, the “fecal indole concentrations relative to controls” value in data set [4] (feces) is given as “significantly more indole”. Further, in data set [4] (feces), the “tyramine fecal concentration by treatment group” value is “significant increase”.
